Series [1] is described as follows: Drug uptake in C57BL/6J mouse brain at 30 mg/kg, ip after 1 hr by LC-MS/MS analysis. Type of series: ADME, organism-based. Further details: dose 30 mg/kg, route intraperitoneal. To be noted: read-out: Drug uptake.
The nature of series [2]: Hepatotoxicity in human Fa2N-4 cells after 24 hrs by luminescence assay. It counts as toxicity, cell-based. The note with it: fa2n-4, 24 h, read-out: LC50 (the source's name).
The next series concerns Liver microsomes. Description: Metabolic stability in human liver microsomes assessed as compound remaining at 1 to 10 uM after 1 hr by LC-MS/MS analysis. Type of series: ADME, Microsome.
Another series has as its system Plasma. Description: Plasma protein binding in human at 10 uM after 4 hrs by LC-MS/MS analysis. Type of series: ADME, cell-free.
Series [3] is described as follows: Effective permeability of the compound at 50 uM after 30 mins at donor pH 5 and acceptor pH 7.4 by PAMPA. To be noted: pH 5, 0.5 h. Type of series: ADME.
Series [4] can be described thus: Kinetic solubility of the compound in PBS buffer at 250 uM after 18 hrs at pH 7.4. Type of series: physicochemical. To be noted: read-out: Kinetic_solubility.
Series [5] is described as follows: Kinetic solubility of the compound in pION buffer at 250 uM after 18 hrs at pH 5. The note with it: read-out: Kinetic_solubility. It counts as physicochemical.
Series [6] is described as follows: Kinetic solubility of the compound in pION buffer at 250 uM after 18 hrs at pH 6.2. It counts as physicochemical. To be noted: read-out: Kinetic_solubility.
In series [7] the target is T1, Alpha-2A adrenergic receptor (Homo sapiens) (UniProt P08913).
T1 sequence (whole entry): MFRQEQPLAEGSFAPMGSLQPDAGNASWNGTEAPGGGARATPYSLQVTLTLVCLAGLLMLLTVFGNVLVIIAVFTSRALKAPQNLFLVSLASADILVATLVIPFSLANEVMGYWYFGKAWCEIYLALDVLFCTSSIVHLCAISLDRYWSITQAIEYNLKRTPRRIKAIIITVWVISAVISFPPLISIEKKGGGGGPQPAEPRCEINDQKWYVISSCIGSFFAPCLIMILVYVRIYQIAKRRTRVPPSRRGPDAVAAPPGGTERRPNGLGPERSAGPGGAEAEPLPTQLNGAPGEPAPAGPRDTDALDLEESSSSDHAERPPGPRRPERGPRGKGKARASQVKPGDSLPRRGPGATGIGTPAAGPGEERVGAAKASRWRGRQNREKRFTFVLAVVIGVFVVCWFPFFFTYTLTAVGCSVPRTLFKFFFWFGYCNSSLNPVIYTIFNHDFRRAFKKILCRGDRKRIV
Description: Binding affinity to adrenergic alpha2A receptor (unknown origin) at 10 uM relative to control.

Series [8] has as its target T2, Alpha-1D adrenergic receptor (Homo sapiens) (UniProt P25100).
T2 sequence (whole entry): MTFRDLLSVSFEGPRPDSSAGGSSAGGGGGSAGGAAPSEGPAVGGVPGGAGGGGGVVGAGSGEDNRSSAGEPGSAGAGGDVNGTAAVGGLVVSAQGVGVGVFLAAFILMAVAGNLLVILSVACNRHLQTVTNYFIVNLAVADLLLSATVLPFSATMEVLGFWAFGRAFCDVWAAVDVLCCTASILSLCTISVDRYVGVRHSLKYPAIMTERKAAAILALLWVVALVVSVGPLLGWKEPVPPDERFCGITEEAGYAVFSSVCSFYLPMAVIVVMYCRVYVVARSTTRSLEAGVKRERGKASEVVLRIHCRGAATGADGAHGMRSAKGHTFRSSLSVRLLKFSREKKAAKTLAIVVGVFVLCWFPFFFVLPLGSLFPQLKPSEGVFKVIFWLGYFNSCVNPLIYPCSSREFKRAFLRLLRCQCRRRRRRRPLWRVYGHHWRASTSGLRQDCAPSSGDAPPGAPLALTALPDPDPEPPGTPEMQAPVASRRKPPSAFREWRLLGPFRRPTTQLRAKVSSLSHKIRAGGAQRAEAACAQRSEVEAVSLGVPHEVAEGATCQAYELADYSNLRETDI
Description: Binding affinity to adrenergic alpha1D receptor (unknown origin) at 10 uM relative to control.

The test system of a further series is Hepatitis C virus. Kind of series: Antiviral activity against Hepatitis C virus assessed as growth inhibition. It counts as functional, Hepacivirus hominis.
The next series concerns the target Translocator protein (Homo sapiens, UniProt P30536). Kind of series: Binding affinity to PBR receptor (unknown origin).
For the next series, the target named is Mu-type opioid receptor (Homo sapiens, UniProt P35372). Description: Binding affinity to mu opioid receptor (unknown origin).
Sequence of Mu-type opioid receptor (P35372 whole entry): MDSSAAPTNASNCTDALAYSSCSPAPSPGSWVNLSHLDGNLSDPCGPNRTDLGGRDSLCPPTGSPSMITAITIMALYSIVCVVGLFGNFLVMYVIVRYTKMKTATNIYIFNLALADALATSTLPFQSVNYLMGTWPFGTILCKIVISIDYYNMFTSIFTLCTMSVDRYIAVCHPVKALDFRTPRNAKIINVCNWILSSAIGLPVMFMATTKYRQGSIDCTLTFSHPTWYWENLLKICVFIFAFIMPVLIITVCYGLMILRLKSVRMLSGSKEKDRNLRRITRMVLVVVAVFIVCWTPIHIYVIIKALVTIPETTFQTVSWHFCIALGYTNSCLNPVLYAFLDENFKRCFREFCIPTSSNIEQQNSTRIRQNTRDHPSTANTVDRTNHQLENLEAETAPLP
Series [9] addresses 5-hydroxytryptamine receptor 7 (Homo sapiens, UniProt P34969). Description: Binding affinity to 5-HT7 receptor (unknown origin).
Series [10] has as its target T3, Neurotensin receptor type 1 (Homo sapiens, UniProt P30989). Kind of series: Agonist activity at NTR1 (unknown origin) expressed in CHO cells assessed as stimulation of calcium flux. Type of series: functional, cell-based. For orientation: Calcium flux is commonly read through the fluorescence of an indicator in the cells.
Series [11] deals with T3, Neurotensin receptor type 1. Kind of series: Agonist activity at NTR1 (unknown origin) expressed in CHOK1 cells by beta-arrestin assay relative to neurotensin (8 to 13). It counts as cell-based. The note with it: CHO-K1.
The target of series [12] is G-protein coupled receptor 35 (Homo sapiens, UniProt Q9HC97). Description: Agonist activity at GPR35 (unknown origin) expressed in human U2OS cells coexpressing beta-arrestin by GFP reporter gene assay. It counts as cell-based. Background: A reporter such as luciferase makes a cellular process visible.
Sequence of G-protein coupled receptor 35 (Q9HC97 whole entry): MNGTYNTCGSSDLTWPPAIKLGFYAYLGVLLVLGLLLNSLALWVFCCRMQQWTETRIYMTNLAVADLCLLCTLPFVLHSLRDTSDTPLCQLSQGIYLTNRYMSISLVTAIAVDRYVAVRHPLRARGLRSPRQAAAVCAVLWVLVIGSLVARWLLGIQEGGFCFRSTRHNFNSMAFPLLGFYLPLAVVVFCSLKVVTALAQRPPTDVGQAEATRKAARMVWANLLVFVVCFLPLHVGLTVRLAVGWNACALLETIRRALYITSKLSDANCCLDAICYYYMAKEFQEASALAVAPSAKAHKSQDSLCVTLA

Values after ≈ are worked out from the molar mass of the structure shown.

T3 sequence (P30989 whole entry): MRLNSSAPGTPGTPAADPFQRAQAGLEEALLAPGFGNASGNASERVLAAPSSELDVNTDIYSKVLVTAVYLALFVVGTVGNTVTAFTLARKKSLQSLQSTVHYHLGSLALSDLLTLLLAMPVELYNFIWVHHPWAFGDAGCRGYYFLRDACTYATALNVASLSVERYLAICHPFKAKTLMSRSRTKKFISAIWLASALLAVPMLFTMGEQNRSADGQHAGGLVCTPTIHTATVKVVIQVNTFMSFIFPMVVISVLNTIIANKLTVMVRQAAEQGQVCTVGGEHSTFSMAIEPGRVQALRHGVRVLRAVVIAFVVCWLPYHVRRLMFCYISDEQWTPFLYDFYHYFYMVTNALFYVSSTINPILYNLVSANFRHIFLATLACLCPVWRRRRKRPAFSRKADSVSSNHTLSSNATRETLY
Sequence of Translocator protein (P30536 whole entry): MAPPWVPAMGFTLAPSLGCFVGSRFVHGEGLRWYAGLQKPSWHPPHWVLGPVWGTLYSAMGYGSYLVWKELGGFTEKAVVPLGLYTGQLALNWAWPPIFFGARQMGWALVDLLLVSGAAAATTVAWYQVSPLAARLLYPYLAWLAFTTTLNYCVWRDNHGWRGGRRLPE
Sequence of 5-hydroxytryptamine receptor 7 (P34969 whole entry): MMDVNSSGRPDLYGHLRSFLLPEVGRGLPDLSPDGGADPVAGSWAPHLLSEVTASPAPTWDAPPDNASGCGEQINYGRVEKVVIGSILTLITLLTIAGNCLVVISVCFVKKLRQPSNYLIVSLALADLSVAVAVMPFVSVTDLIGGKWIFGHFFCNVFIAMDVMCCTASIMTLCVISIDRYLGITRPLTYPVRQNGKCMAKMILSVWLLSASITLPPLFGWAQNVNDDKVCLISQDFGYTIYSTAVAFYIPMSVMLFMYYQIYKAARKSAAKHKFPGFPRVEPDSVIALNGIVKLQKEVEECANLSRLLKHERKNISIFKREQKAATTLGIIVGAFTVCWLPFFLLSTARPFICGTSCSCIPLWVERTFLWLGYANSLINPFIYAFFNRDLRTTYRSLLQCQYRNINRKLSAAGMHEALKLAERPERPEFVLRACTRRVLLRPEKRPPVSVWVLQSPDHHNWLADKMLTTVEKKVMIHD

A word on the Ki: it is the dissociation constant of the complex between target and ligand, obtained from inhibition or displacement. The EC50 is the midpoint of the concentration-response curve. Usually Emax stands for the greatest response seen or fitted, relative to the assay's reference. Turning to `COc1cc2nc(C3CC3)nc(N3CCN(c4ccccc4OC)CC3)c2cc1OC`, the concentration at 1 h in series [1] is 1510 ng/mL. In [2], the CC50 was 29600 nM. For the same molecule, the Stability with Liver microsomes came to 1.4%. This molecule also had a PPB in the series on Plasma of 99.2%. Also, in series [3], the Peff was found to be 1160 ×10⁻⁶ cm/s. For the same molecule, the solubility kinetic at 18 h, 250 µM in series [4] was 1.1 µM (≈ 0.463 µg/mL); in series [5], more than 297 µM; in [6], 21.4 µM (≈ 9 µg/mL). The Activity in series [7] and in series [8] was 63% each time. Further, the GI in the series with Hepatitis C virus worked out at 3.16 µM. Also, the figures for the Ki (on Translocator protein; on Mu-type opioid receptor; in [9]) were 2540 nM, 1540 nM and 930 nM, respectively. Besides, the EC50 in [10] was more than 80000 nM; in series [12] it was more than 40000 nM. The molecule further showed an Emax in [11] of 86.6%.

Source of the values: ChEMBL document CHEMBL2429761, “Discovery of ML314, a Brain Penetrant Non-Peptidic β-Arrestin Biased Agonist of the Neurotensin NTR1 Receptor” (ACS Med Chem Lett, 2013).
